Laboratory results reported in paper PMC7078479, “Sulfamoyl Heteroarylcarboxylic Acids as Promising Metallo-β-Lactamase Inhibitors for Controlling Bacterial Carbapenem Resistance” (mBio, 2020).
Entries after “also recorded” stand apart in the source; their conditions may differ. Where two headings read alike, the source gives them in different places.

What was measured:
E. coli DH5α/pBC-VIM-2 = experiment: Susceptibility and checkerboard testing, VIM-2-producing E. coli; assay type: cell-based, Escherichia coli; conditions: for MIC: Escherichia coli
Description: (§1) MICs were determined via the microdilution method according to the CLSI guidelines ([38]). In brief, 5 × 10^4 bacterial cells were inoculated in 100 μl of cation-adjusted Mueller-Hinton broth (Becton, Dickinson and Company, Franklin Lakes, NJ) containing the β-lactams and appropriately diluted inhibitors. The final concentration of DMSO was maintained at 2% in the assays. The tested plates were then incubated at 35°C for 16 to 20 h. The MIC value was determined as the lowest concentration of tested β-lactams where no bacterial growth was visibly observed. The optical density at 600 nm (OD600) value was measured using a plate reader for drawing the heat maps. The FIC index value was calculated using the following equation: FIC index=MIC of β-lactam with inhibitor/MIC of β-lactam alone+MIC of inhibitor with β-lactam/MIC of inhibitor alone
(§2) Unless noted otherwise, the FIC index was defined as the lowest value among all obtained values. The synergistic effect was defined as the effect observed when the FIC index value was ≤0.5.

E. coli DH5α/pBC-NDM-1 = experiment: Susceptibility and checkerboard testing, NDM-1-producing E. coli; assay type: cell-based, Escherichia coli; conditions: for MIC: Escherichia coli
Description: as §1, §2

[1] = test system: E. coli BL21(DE3)/pET-KHM-1; experiment: Susceptibility testing, KHM-1-producing E. coli; assay type: cell-based; conditions: Escherichia coli
Description: as §1

L1 = biological target: T1, L1 (Stenotrophomonas maltophilia, UniProt P52700); experiment: In vitro inhibition assay, IPM hydrolysis by L1; assay type: biochemical; conditions: even in the presence of 100 μM SFC
T1 construct: made in house
T1 sequence (P52700 34-290): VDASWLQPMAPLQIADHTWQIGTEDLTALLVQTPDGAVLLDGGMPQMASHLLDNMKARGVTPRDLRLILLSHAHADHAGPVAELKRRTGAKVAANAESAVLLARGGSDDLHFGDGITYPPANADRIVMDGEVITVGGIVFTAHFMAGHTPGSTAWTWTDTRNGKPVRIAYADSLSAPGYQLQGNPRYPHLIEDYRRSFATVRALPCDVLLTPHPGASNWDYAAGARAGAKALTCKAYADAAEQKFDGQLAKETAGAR
Description: (§3) MBL (10 nM) was mixed with the inhibitors and incubated for 5 min at 30°C. IPM was added to reach a concentration of 150 μM, and the velocity of IPM hydrolysis was monitored at 298 nm. The assay was performed at 30°C using 10 mM HEPES (pH 7.5) buffer containing 200 mM NaCl and 50 μg/ml bovine serum albumin (BSA) for IMP-1, NDM-1, VIM-2, and SMB-1. For SFH-1 and L1, another 10 mM HEPES (pH 7.5) buffer containing 200 mM NaCl, 20 μM ZnSO4, and 50 μg/ml BSA was used.

[2] = test system: IMP-1-producing E. coli NUBL-24; experiment: Time-kill assay; assay type: cell-based, Escherichia coli; conditions: 10 μg/ml SFC added to 1 μg/ml MPM, 6 h
Description: The initial density of E. coli NUBL-24 (blaIMP-1) (MPM MIC, 8 μg/ml) was adjusted to approximately 5 × 10^6 CFU/ml. Either MPM (1 μg/ml) alone or SFC (10 μg/ml) alone or a combination of the two was added to the bacterial solution, and then incubation was performed at 37°C. LB broth containing only bacteria was used as a control. At 0, 2, 4, 6, and 24 h after adding the agents, an aliquot of bacterial culture was removed, diluted, and spotted on LB agar plates to count the viable bacterial cells. The detection limit was set at 200 CFU/ml.

E. coli DH5α/pBC-TMB-2 = experiment: Susceptibility testing, TMB-2-producing E. coli; assay type: cell-based; conditions: Escherichia coli
Description: as §1

SFH-1 = experiment: In vitro inhibition assay, IPM hydrolysis by SFH-1; assay type: biochemical; conditions: even in the presence of 100 μM SFC
Description: as §3

[3] = Human liver microsomal stability test; assay type: in vitro ADME; conditions: 100 nM compound, 0.1 mg protein/ml, 35 min, 37°C
Description: Human liver microsomal stability tests were performed by Sumika Chemical Analysis Service (Osaka, Japan). Compounds (100 nM) were incubated with human liver microsomes (0.1 mg protein/ml) for 35 min at 37°C and subjected to liquid chromatography-tandem mass spectrometry (LC-MS/MS) for quantification of the loss of the tested compounds.

[4] = test system: P. aeruginosa PAO1/pME-NDM-1; experiment: Susceptibility testing, NDM-1-producing P. aeruginosa PAO1; assay type: cell-based; conditions: Pseudomonas aeruginosa
Description: as §1

[5] = biological target: T2, angiotensin-converting enzyme (ACE) (Homo sapiens, UniProt P12821); experiment: ACE inhibition (ACE Kit-WST); assay type: biochemical; conditions: human metalloenzyme
T2 construct: purchased Dojindo Laboratories ACE Kit-WST
T2 sequence (P12821 30-1306): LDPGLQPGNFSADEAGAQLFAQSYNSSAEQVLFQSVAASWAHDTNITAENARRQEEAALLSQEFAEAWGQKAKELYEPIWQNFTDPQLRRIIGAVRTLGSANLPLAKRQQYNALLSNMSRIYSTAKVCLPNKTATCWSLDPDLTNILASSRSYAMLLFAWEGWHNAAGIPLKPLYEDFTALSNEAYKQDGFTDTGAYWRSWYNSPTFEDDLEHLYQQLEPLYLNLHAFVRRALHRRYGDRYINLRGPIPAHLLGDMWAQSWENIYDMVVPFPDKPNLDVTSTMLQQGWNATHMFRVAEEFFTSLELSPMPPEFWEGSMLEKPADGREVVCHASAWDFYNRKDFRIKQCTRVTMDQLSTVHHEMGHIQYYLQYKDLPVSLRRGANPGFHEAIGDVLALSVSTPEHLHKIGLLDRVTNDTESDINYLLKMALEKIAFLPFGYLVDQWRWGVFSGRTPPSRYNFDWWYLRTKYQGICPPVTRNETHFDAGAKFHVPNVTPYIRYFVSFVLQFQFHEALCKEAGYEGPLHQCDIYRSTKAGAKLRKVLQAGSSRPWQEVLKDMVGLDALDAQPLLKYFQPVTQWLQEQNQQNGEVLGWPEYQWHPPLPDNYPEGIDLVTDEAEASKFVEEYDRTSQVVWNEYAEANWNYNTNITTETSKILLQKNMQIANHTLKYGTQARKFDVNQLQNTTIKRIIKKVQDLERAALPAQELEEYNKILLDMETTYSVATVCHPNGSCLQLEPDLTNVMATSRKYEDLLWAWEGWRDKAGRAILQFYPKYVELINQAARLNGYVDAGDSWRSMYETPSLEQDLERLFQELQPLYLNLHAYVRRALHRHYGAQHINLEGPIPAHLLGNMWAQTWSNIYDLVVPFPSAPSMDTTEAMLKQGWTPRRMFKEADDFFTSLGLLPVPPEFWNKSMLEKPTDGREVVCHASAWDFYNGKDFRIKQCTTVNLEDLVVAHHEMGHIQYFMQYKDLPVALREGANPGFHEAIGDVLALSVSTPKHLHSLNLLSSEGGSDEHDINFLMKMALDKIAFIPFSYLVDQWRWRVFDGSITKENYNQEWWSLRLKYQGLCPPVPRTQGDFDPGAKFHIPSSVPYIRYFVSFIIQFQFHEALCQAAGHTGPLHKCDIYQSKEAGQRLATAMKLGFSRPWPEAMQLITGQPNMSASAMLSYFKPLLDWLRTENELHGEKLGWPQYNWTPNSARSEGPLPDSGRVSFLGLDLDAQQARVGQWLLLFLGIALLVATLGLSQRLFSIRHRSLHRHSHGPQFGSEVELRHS
Description: The serine–β-lactamases (1 nM) TLA-3, CMY-2, and OXA-48 were mixed with SFC in 100 mM phosphate buffer (pH 7.0) and incubated for 5 min at 30°C. Nitrocefin was added to reach a concentration of 100 μM, and the velocity of nitrocefin hydrolysis was monitored at 482 nm. Avibactam (MedKoo Bioscience, Morrisville, NC) was used as an inhibitor for serine–β-lactamases. The inhibitory effect of SFC against ACE was evaluated using ACE Kit-WST (Dojindo Laboratories, Kumamoto, Japan). The residual ACE activity was calculated as described in the manufacturer’s protocol as follows: [1 − (Acontrol − Asample)/(Acontrol − Abackground)] × 100. EDTA solution (Nippon Gene, Tokyo, Japan) was used as an ACE inhibitor.

mice = experiment: Acute toxicity study in mice; assay type: in vivo; conditions: intravenous (i.v.) single injection, 7 days
Description: All experiments were approved by the Nagoya University Animal Ethics Committee, and all experiments were performed in a manner that minimized animal suffering. Male CD1 mice (4 weeks old; 20 to 25 g body weight) were purchased from Charles River Laboratories Japan (Yokohama, Japan). E. coli NUBL-24 (blaIMP-1) and K. pneumoniae MS5674 (blaNDM-1 and blaVIM-1) strains were inoculated on LB agar plates and grown for 18 h at 37°C. Bacteria were then scraped from the plates, and their concentration was adjusted to 5 × 10^6 to 1 × 10^7 CFU in saline solution containing 5% mucin; this solution was then i.p. injected into the mice. At 1 and 3 h after infection, saline solution, MPM, inhibitors, and a combination of MPM and inhibitor were i.p. injected. Mice were monitored for 7 days to formulate survival curves, after which they were euthanized by CO2 asphyxiation.
For acute toxicity studies, mice were i.p. (400 μl/injection) or i.v. (150 μl/injection) administered a single injection of serially diluted SFC. Mortality was then monitored for 7 days.

E. coli = experiment: Growth inhibition by inhibitor alone; assay type: cell-based, Escherichia coli; conditions: at least at 128 μg/ml
Description: as §1

[6] = test system: P. aeruginosa PAO1/pME-VIM-2; experiment: Susceptibility testing, VIM-2-producing P. aeruginosa PAO1; assay type: cell-based; conditions: Pseudomonas aeruginosa
Description: as §1

[7] = read-out: MIC of MPM + inhibitor (8 μg/ml)
[8] = read-out: MIC of MPM + inhibitor (32 μg/ml)
[9] = PAO1, read-out: MIC of MPM + inhibitor (10 μg/ml)
[10] = PAO1, read-out: MIC of MPM + inhibitor (50 μg/ml)

## Cc1oc(C)c(S(N)(=O)=O)c1C(=O)O [SFC, 2,5-dimethyl-4-sulfamoylfuran-3-carboxylic acid]
E. coli DH5α/pBC-VIM-2; E. coli DH5α/pBC-VIM-2
  MIC ceftazidime + 2 μg/mL compound: 16 µg/mL
E. coli DH5α/pBC-VIM-2; E. coli DH5α/pBC-VIM-2, 2 μg/ml compound
  Reduction in CAZ MIC: no reduction
E. coli DH5α/pBC-VIM-2; read-out: MIC of CAZ + inhibitor (8 μg/ml)
  MIC: 4 µg/mL
E. coli DH5α/pBC-VIM-2; read-out: MIC of CAZ + inhibitor (32 μg/ml)
  MIC: 2 µg/mL
E. coli DH5α/pBC-VIM-2; checkerboard with CAZ, E. coli DH5α/pBC-VIM-2, lowest value
  FIC index: 0.31
E. coli DH5α/pBC-NDM-1; E. coli DH5α/pBC-NDM-1
  MIC meropenem + 2 μg/mL compound: 16 µg/mL
E. coli DH5α/pBC-NDM-1; E. coli DH5α/pBC-NDM-1, 2 μg/ml compound
  Reduction in MPM MIC: 4 fold
E. coli DH5α/pBC-NDM-1; [7]
  MIC: 2 µg/mL
E. coli DH5α/pBC-NDM-1; [8]
  MIC: ≤ 0.25 µg/mL
E. coli DH5α/pBC-NDM-1; checkerboard with MPM, E. coli DH5α/pBC-NDM-1, lowest value
  FIC index: 0.09
[1]; [7]
  MIC: 4 µg/mL
[1]; [8]
  MIC: 2 µg/mL
L1
  Inhibition of IPM hydrolyzing activity of L1: did not inhibit
[2]
  Reduction of bacterial population: more than 1,000 fold
E. coli DH5α/pBC-TMB-2; [7]
  MIC: 0.5 µg/mL
E. coli DH5α/pBC-TMB-2; [8]
  MIC: 0.125 µg/mL
SFH-1
  Inhibition of IPM hydrolyzing activity of SFH-1: did not inhibit
[3]
  Stability in human liver microsomes: did not lead to structural changes; also recorded: high stability
[4]; [9]
  MIC: 4 µg/mL
[4]; [10]
  MIC: 4 µg/mL
[5]
  Inhibitory effect on ACE: no inhibitory effect
mice
  50% lethal dose (LD50): 246 mg/kg of body weight
E. coli
  Growth inhibition by SFC alone: did not show growth inhibition
[6]; [9]
  MIC: 32 µg/mL
[6]; [10]
  MIC: 16 µg/mL
